Laboratory results reported in PMC8235719, “New RAD51 Inhibitors to Target Homologous Recombination in Human Cells” (Genes, 2021).
Entries after “also recorded” stand apart in the source; their conditions may differ. Read-outs that look alike come from different tables or passages of the source.

Legend:
Type in all cases: cell-based, human
[1] = system: MDA-MB-231 cells; test: Cell viability of MDA-MB-231 after 1 h MMS treatment; conditions: MDA-MB-231, 100 µM MMS 1 h
Experimental: For experiments in which MDA-MB-231 cells were treated with MMS, cells were seeded in 24-well plates at 3.5 × 10^4 cells/well. The next day, cells were treated with 100 µM MMS (Sigma, St. Louis, MO, USA) for 1 h in the presence of increasing concentrations of olaparib and 2 µM B02-iso where indicated. Then, cells were washed twice with PBS, which was followed by incubation with olaparib at indicated concentrations and 2 µM B02-iso where indicated for 4 days. After completion of the treatments, cells were harvested, and their viability was determined by flow cytometry using Guava ViaCount reagent (Luminex; Austin, TX, USA). Data were analyzed using the Guava ViaCount software (Millipore; Burlington, VT, USA).

[2] = system: MDA-MB-231 cells; test: Cell viability assay (Guava ViaCount flow cytometry), MDA-MB-231; conditions: for IC50: read-out: IC50 of cell viability
Experimental: For all cell viability experiments, except experiments involving MMS treatment, cells were seeded into the media containing indicated concentrations of tested compounds or corresponding amounts of DMSO in controls. The concentration of DMSO in media was 0.1%. MDA-MB-231 cells were seeded into 24-well plates at 3.5 × 10^4 cells/well for cells for a 4-day treatment or at 5000 cells/well for a 10-day treatment. MCF 10A cells were seeded into 24-well plates at 1.5 × 10^4 cells/well for a 4-day treatment or at 500 cells/well for a 10-day treatment. In the case of 10-day treatments, the media with compounds were renewed twice on the 4th and the 7th days of treatments. After completion of the treatments, cells were harvested, and their viability was determined by flow cytometry with Guava ViaCount reagent (Luminex; Austin, TX USA). Data were analyzed using the Guava ViaCount software (Millipore; Burlington, VT, USA). The IC50 values were calculated using the GraphPad Prism 5 software (San Diego, CA, USA).

[3] = system: MCF 10A cells; test: Cell cycle analysis (propidium iodide flow cytometry); conditions: 24 h
Experimental: Exponentially growing MDA-MB-231 and MCF 10A cells were seeded into 6-well plates at a density of 1.5 × 10^5 cells/well in the presence of indicated concentrations of B02-iso or 0.01% DMSO (for control cells). After 24 h of incubation, cells were harvested, placed on ice, and washed once with cold PBS. Cells were counted with an automated cell counter (Bio-Rad; Hercules, CA, USA), and 1 × 10^5 cells from each sample were taken for further analysis. Cells were resuspended in PBS, and then cold, absolute ethanol was added dropwise to a cell suspension to reach a final concentration of 70%, followed by incubation on ice for 1 h. Cells were washed in PBS, resuspended in staining buffer (50 µg/mL propidium iodide, 100 µg/mL RNase A, 0.1% Triton X-100 in PBS) and incubated for 15 min in the dark at 37 °C. Cells were analyzed for DNA content by flow cytometry using the Guava easyCyte system (Millipore; Burlington, VT, USA) with the InCyte software (Millipore; Burlington, VT, USA).

[4] = system: RAD51 expression in U-2 OS IndDR-GFP cells; test: RAD51 expression level by Western blotting; conditions: 4 µM, 24 h
Experimental: Protein concentrations in the nuclear and whole-cell extracts were determined by Bradford assay (Bio-Rad), and the equivalent protein amounts were subjected to electrophoresis in 12% SDS-Polyacrylamide gels (29:1) in Tris-Glycine-SDS buffer. After gel-electrophoresis, proteins were transferred to PVDF membranes (Amersham, Piscataway, NJ, USA) using Mini Trans-Blot Cell (BioRad, Hercules, CA, USA) at 80V for 40 min. PVDF membranes were washed in TBS and blocked with a blocking buffer (5% nonfat dry milk in TBS-T) for 1 h. Anti-RAD51 rabbit polyclonal antibody (1:1000, GeneTex, GTX100469), anti-FKBP12 monoclonal mouse antibody (1:100, BD Biosciences; Franklin lakes, NJ, USA, 610808) for the detection of ddSceGR, and anti-nucleolin mouse monoclonal antibody (1:1000, Santa Cruz Biotechnology; Dallas, Texas, sc-17826) were applied overnight in a blocking buffer at 4 °C. […] Signal was detected with SuperSignal West Pico Plus chemiluminescent substrate (Thermo Scientific; Waltham, […], USA) with a G:B0X6 imaging system (Syngene; Bangalore, India). Band intensities were quantified with the GeneTools software (Syngene; Bangalore, India).
IndDR-GFP cells. […] 10 µg of protein lysates were loaded and analyzed by SDS-PAGE. […]

- IC50 ([2]; Homo sapiens, MDA-MB-231, 96 h, MDA-MB-231, 4-day treatment): 4.1 µM
- IC50 ([2]; Homo sapiens, MDA-MB-231, 240 h, MDA-MB-231, 10-day treatment, compound alone): 2.6 µM
Structure (SMILES): O=c1nc(/C=C/c2cccnc2)n(Cc2ccccc2)c2ccccc12 [B02-iso]
- Sensitization of cells to B02-iso by MMS in the absence of olaparib ([1]; 4-day treatment): did not sensitize
- Effect on cell killing by MMS plus olaparib ([1]; olaparib, 2 µM B02-iso, 4 days): further significantly increased
- inhibition at 2 µM ([2]; Homo sapiens, 96 h, MDA-MB-231, 2 µM, 4-day treatment, read-out: Growth inhibition): < 5%
- Effect on cell viability, compound alone ([2]; MDA-MB-231, 1.8 µM, 10-day treatment): does not impair cell viability
- Fold increase in efficiency of olaparib killing ([2]; MDA-MB-231, 10-day treatment, 1.8 µM B02-iso): 2.4 fold
- Cell cycle effect [3]: prominent G1 arrest
- RAD51 expression level [4]: does not change the RAD51 expression level; also recorded: did not change RAD51 expression level
